Structures can show the parent of a compound that is named as a salt. Where two headings read alike, the source gives them in different places.
Legend:
Assay type in all cases: cell-based
[1] = molecular target: T1, human dopamine transporter (Homo sapiens, UniProt Q01959); test: Inhibitory action on human dopamine transporter ([3H]-dopamine uptake in CHO cells); settings: compound 1 μM, relative to inhibitory activity of 100 μM Nomifensine as 100%; for inhibition at 1 µM: CHO, read-out: inhibitory rate (%)
T1 construct: expressed in transfected cells
T1 sequence (Q01959 whole entry): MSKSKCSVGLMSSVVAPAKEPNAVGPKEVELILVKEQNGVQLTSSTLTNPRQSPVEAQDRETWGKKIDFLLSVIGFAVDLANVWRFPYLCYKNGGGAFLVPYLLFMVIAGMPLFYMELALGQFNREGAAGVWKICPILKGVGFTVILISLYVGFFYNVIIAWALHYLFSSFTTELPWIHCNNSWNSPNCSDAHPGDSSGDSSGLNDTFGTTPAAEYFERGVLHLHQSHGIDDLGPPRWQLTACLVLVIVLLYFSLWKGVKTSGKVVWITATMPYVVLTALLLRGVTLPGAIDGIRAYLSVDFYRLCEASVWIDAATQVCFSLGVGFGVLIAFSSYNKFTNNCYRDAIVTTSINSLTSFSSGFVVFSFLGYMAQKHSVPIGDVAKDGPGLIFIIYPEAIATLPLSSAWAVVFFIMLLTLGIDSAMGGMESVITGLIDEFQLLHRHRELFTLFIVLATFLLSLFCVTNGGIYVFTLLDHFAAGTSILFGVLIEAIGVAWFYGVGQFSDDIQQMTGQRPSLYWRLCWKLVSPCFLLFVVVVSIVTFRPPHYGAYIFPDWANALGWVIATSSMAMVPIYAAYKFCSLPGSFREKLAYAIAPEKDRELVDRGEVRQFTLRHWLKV
Procedure, shortened: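 CHO-K1 cells stably expressing human dopamine transporter, exposed to compound at 10 μM or 1 μM in HEPES-buffered saline with 0.5% BSA. [3H]-dopamine uptake measured over 60 min by scintillation counting. Activity expressed relative to 100 μM nomifensine as 100%.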

[2] = molecular target: T2, human serotonin transporter (Homo sapiens, UniProt P31645); test: Inhibitory action on human serotonin transporter ([3H]-5-hydroxytryptamine uptake in CHO cells); settings: compound 1 μM, relative to inhibitory activity of 10 μM Paroxetine as 100%; for inhibition at 1 µM: CHO, read-out: inhibitory rate (%)
T2 construct: expressed in transfected cells
T2 sequence (P31645 whole entry): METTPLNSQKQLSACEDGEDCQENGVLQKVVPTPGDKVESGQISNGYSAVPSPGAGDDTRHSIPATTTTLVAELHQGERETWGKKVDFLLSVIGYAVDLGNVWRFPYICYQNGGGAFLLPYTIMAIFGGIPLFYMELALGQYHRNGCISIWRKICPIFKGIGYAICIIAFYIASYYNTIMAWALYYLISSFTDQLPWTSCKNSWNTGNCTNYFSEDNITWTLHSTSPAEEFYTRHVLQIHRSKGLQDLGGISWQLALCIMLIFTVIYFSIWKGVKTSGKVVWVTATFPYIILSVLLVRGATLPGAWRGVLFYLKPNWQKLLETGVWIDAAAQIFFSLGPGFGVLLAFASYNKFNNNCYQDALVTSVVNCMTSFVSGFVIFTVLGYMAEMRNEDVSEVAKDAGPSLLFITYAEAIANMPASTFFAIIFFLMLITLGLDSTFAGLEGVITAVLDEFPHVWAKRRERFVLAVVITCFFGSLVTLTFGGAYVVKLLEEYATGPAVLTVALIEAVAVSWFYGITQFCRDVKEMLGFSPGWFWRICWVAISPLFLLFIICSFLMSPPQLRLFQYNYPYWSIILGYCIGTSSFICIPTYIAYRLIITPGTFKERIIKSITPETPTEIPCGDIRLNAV
Procedure, shortened: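 CHO-K1 cells stably expressing human SERT, plated overnight, took up [3H]-5-HT (diluted to 200 nM before a 1:10 addition) for 20 min in HEPES-buffered saline with glucose and 0.5% BSA; radioactivity counted by scintillation. Compounds at 10 μM or 1 μM, activity expressed relative to 10 μM paroxetine set as 100%.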

[3] = molecular target: T3, human norepinephrine transporter (Homo sapiens, UniProt P23975); test: Inhibitory action on human norepinephrine transporter ([3H]-norepinephrine uptake in CHO cells); settings: relative to inhibitory activity of 10 μM DMI as 100%; for inhibition at 1 µM: CHO
T3 construct: expressed in transfected cells
T3 sequence (P23975 whole entry): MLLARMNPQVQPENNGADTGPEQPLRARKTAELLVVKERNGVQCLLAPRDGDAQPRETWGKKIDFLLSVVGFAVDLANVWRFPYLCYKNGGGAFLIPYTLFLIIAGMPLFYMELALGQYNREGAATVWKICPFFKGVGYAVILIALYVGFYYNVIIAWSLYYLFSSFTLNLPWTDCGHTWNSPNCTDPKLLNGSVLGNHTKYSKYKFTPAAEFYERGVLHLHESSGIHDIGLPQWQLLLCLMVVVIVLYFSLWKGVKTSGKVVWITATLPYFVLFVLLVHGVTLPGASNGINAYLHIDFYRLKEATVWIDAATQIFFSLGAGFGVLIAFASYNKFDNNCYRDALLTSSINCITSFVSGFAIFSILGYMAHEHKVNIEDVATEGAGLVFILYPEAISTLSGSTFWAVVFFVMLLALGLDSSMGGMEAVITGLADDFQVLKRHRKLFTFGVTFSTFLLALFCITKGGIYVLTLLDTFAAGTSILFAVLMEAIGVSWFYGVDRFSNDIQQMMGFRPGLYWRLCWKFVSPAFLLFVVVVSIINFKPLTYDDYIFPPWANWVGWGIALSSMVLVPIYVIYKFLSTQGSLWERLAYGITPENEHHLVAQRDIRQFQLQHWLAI
Procedure, shortened: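 Stably transfected CHO-K1 cells plated overnight, then given test compound and [3H]-norepinephrine (20 nM final, from 200 nM) in HEPES-buffered saline with 0.5% BSA for 45 min. After PBS washes, retained radioactivity counted by scintillation. Inhibition at 10 μM or 1 μM compound expressed relative to 10 μM DMI as 100%.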

[4] = read-out: inhibitory rate (%), compound 1 μM
[5] = compound 1 μM, read-out: inhibitory rate (%)

For `OCC1CNCCOC1c1ccc(Cl)c(Cl)c1` (stereo not drawn) [Example 49, [(6R*,7R*)-7-(3,4-dichlorophenyl)-1,4-oxazepan-6-yl]methanol monohydrochloride (retention time long)], the “inhibitory rate (%)” value [1] was 41%, the “inhibitory rate (%)” value [2] was 87% and the “inhibitory rate (%)” value ([3]; compound 1 μM) was 98%.
`OC[C@@H]1CNCCO[C@H]1c1ccc(Cl)c(Cl)c1` [Example 72, [(6S,7R)-7-(3,4-dichlorophenyl)-1,4-oxazepan-6-yl]methanol monohydrochloride] gave an inhibition at 1 µM [1] of 41%, an inhibition at 1 µM [2] of 90% and an inhibition at 1 µM [3, 4] of 95%.
Work on `OC[C@H]1CNCCO[C@@H]1c1ccc(Cl)c(Cl)c1` [Example 73, [(6R,7S)-7-(3,4-dichlorophenyl)-1,4-oxazepan-6-yl]methanol monohydrochloride] yielded an inhibition at 1 µM [1] of 64%, an inhibition at 1 µM [2] of 97% and an inhibition at 1 µM [3, 4] of 98%.
Work on `O=c1[nH]c(-c2ccc(OC[C@@H]3CNCCO[C@H]3c3ccc(Cl)c(Cl)c3)nc2)no1` [Example 87, 3-(6-{[(6S,7R)-7-(3,4-dichlorophenyl)-1,4-oxazepan-6-yl]methoxy}pyridin-3-yl)-1,2,4-oxadiazol-5(4H)-one monohydrochloride] yielded an inhibition at 1 µM [1] of 20%, an inhibition at 1 µM [2] of 96% and an inhibition at 1 µM [3, 5] of 108%.
In the case of `CS(=O)(=O)C[C@@H]1CNCCO[C@H]1c1ccc(Cl)c(Cl)c1` [Example 92, (6R,7R)-7-(3,4-dichlorophenyl)-6-[(methylsulfonyl)methyl]-1,4-oxazepane monohydrochloride], the inhibition at 1 µM [1] is reported as 86%, the inhibition at 1 µM [2] is reported as 97% and the inhibition at 1 µM [3, 5] is reported as 96%.
For `CS(=O)(=O)C[C@H]1CNCCO[C@@H]1c1ccc(Cl)c(Cl)c1` [Example 93, (6S,7S)-7-(3,4-dichlorophenyl)-6-[(methylsulfonyl)methyl]-1,4-oxazepane monohydrochloride], the inhibition at 1 µM [1] was 96%, the inhibition at 1 µM [2] was 97% and the inhibition at 1 µM [3, 5] was 96%.
Work on `CC(=O)N(C)C[C@@H]1CNCCO[C@H]1c1ccc(Cl)c(Cl)c1` [Example 99, N-{[(6S,7R)-7-(3,4-dichlorophenyl)-1,4-oxazepan-6-yl]methyl}-N-methylacetamide monohydrochloride] yielded an inhibition at 1 µM [1] of 94%, an inhibition at 1 µM [2] of 99% and an inhibition at 1 µM [3, 5] of 98%.
Work on `CS(=O)(=O)CC(=O)NC[C@@H]1CNCCO[C@H]1c1ccc(Cl)c(Cl)c1` [Example 114, N-{[(6S,7R)-7-(3,4-dichlorophenyl)-1,4-oxazepan-6-yl]methyl}-2-(methylsulfonyl)acetamide monohydrochloride] yielded an inhibition at 1 µM [1] of 59%, an inhibition at 1 µM [2] of 94% and an inhibition at 1 µM [3, 5] of 99%.
With `CS(=O)(=O)CC(=O)NC[C@H]1CNCCO[C@@H]1c1ccc(Cl)c(Cl)c1` [Example 115, N-{[(6R,7S)-7-(3,4-dichlorophenyl)-1,4-oxazepan-6-yl]methyl}-2-(methylsulfonyl)acetamide monohydrochloride] the inhibition at 1 µM [1] was 66%, the inhibition at 1 µM [2] was 99% and the inhibition at 1 µM [3, 5] was 98%.
For `O=C(NC[C@@H]1CNCCO[C@H]1c1ccc(Cl)c(Cl)c1)c1ccccc1` [Example 126, N-{[(6S,7R)-7-(3,4-dichlorophenyl)-1,4-oxazepan-6-yl]methyl}benzamide monohydrochloride], the inhibition at 1 µM [1] was 27%, the inhibition at 1 µM [2] was 97% and the inhibition at 1 µM [3, 5] was 103%.
`O=C(NC[C@@H]1CNCCO[C@H]1c1ccc(Cl)c(Cl)c1)c1cccc(-c2noc(=O)[nH]2)c1` [Example 142, N-{[(6S,7R)-7-(3,4-dichlorophenyl)-1,4-oxazepan-6-yl]methyl}-3-(5-oxo-4,5-dihydro-1,2,4-oxadiazol-3-yl)benzamide monohydrochloride] gave an inhibition at 1 µM [1] of 4%, an inhibition at 1 µM [2] of 95% and an inhibition at 1 µM [3, 5] of 100%.
`O=C(NC[C@@H]1CNCCO[C@H]1c1ccc(Cl)c(Cl)c1)c1cc(-c2noc(=O)[nH]2)ccn1` [Example 146, N-{[(6S,7R)-7-(3,4-dichlorophenyl)-1,4-oxazepan-6-yl]methyl}-4-(5-oxo-4,5-dihydro-1,2,4-oxadiazol-3-yl)pyridine-2-carboxamide monohydrochloride] gave an inhibition at 1 µM [1] of 47%, an inhibition at 1 µM [2] of 100% and an inhibition at 1 µM [3, 5] of 101%.
`NC(=O)NC[C@@H]1CNCCO[C@H]1c1ccc(Cl)c(Cl)c1` [Example 152, 1-{[(6S,7R)-7-(3,4-dichlorophenyl)-1,4-oxazepan-6-yl]methyl}urea monofumarate] was tested, and the inhibition at 1 µM [1] was 59%, the inhibition at 1 µM [2] was 89% and the inhibition at 1 µM [3, 4] was 95%.
`NC(=O)NC[C@H]1CNCCO[C@@H]1c1ccc(Cl)c(Cl)c1` [Example 153, 1-{[(6R,7S)-7-(3,4-dichlorophenyl)-1,4-oxazepan-6-yl]methyl}urea monofumarate] was tested, and the inhibition at 1 µM [1] was 49%, the inhibition at 1 µM [2] was 93% and the inhibition at 1 µM [3, 4] was 95%.
With `CNC(=O)N(CCO)C[C@@H]1CNCCO[C@H]1c1ccc(Cl)c(Cl)c1` [Example 160, 1-{[(6S,7R)-7-(3,4-dichlorophenyl)-1,4-oxazepan-6-yl]methyl}-1-(2-hydroxyethyl)-3-methylurea monohydrochloride] the inhibition at 1 µM [1] was 99%, the inhibition at 1 µM [2] was 99% and the inhibition at 1 µM [3, 5] was 101%.
Work on `O=c1nc(-c2ccccc2S(=O)(=O)C[C@@H]2CNCCO[C@H]2c2ccc(Cl)c(Cl)c2)[nH]o1` [Example 167, 3-[2-({[(6R,7R)-7-(3,4-dichlorophenyl)-1,4-oxazepan-6-yl]methyl}sulfonyl)phenyl]-1,2,4-oxadiazol-5(2H)-one monohydrochloride] yielded an inhibition at 1 µM [1] of 88%, an inhibition at 1 µM [2] of 93% and an inhibition at 1 µM [3, 5] of 103%.
`O=C(O)c1cccnc1NC[C@@H]1CNCCO[C@H]1c1ccc(Cl)c(Cl)c1` [Example 176, 2-({[(6S,7R)-7-(3,4-dichlorophenyl)-1,4-oxazepan-6-yl]methyl}amino)pyridine-3-carboxylic acid monohydrochloride] showed an inhibition at 1 µM [1] of 20%, an inhibition at 1 µM [2] of 80% and an inhibition at 1 µM [3, 5] of 101%.
With `O=C(O)c1ccnn1C[C@@H]1CNCCO[C@H]1c1ccc(Cl)c(Cl)c1` [Example 181, 1-{[(6S,7R)-7-(3,4-dichlorophenyl)-1,4-oxazepan-6-yl]methyl}-1H-pyraole-5-carboxylic acid monohydrochloride] the inhibition at 1 µM [1] was 39%, the inhibition at 1 µM [2] was 87% and the inhibition at 1 µM [3, 5] was 100%.
For `Cc1cc(C(=O)O)nn1C[C@@H]1CNCCO[C@H]1c1ccc(Cl)c(Cl)c1` [Example 187, 1-{[(6S,7R)-7-(3,4-dichlorophenyl)-1,4-oxazepan-6-yl]methyl}-5-methyl-1H-pyrazole-3-carboxylic acid monohydrochloride], the inhibition at 1 µM [1] was 53%, the inhibition at 1 µM [2] was 86% and the inhibition at 1 µM [3, 5] was 101%.
`O=c1[nH]c(-c2csc(C[C@@H]3CNCCO[C@H]3c3ccc(Cl)c(Cl)c3)n2)no1` [Example 199, 3-(2-{[(6R,7R)-7-(3,4-dichlorophenyl)-1,4-oxazepan-6-yl]methyl}-1,3-thiazol-4-yl)-1,2,4-oxadiazol-5(4H)-one monohydrochloride] gave an inhibition at 1 µM [1] of 66%, an inhibition at 1 µM [2] of 100% and an inhibition at 1 µM [3, 5] of 99%.
`O=c1[nH]c(-c2ccnn(C[C@@H]3CNCCO[C@H]3c3ccc(Cl)c(Cl)c3)c2=O)no1` [Example 209, 2-{[(6S,7R)-7-(3,4-dichlorophenyl)-1,4-oxazepan-6-yl]methyl}-4-(5-oxo-4,5-dihydro-1,2,4-oxadiazol-3-yl)pyridazin-3(2H)-one monohydrochloride] showed an inhibition at 1 µM [1] of 71%, an inhibition at 1 µM [2] of 97% and an inhibition at 1 µM [3, 4] of 101%.
`OCCC[C@@H]1CNCCO[C@H]1c1ccc(Cl)c(Cl)c1` [Example 212, 3-[(6R,7R)-7-(3,4-dichlorophenyl)-1,4-oxazepan-6-yl]propan-1-ol monohydrochloride] was tested, and the inhibition at 1 µM [1] was 94%, the inhibition at 1 µM [2] was 98% and the inhibition at 1 µM [3, 5] was 103%.
Compound `CC(=O)[C@@H]1CNCCO[C@H]1c1ccc(Cl)c(Cl)c1` [Example 216, 1-[(6R,7R)-7-(3,4-dichlorophenyl)-1,4-oxazepan-6-yl]ethanone monohydrochloride] has an inhibition at 1 µM [1] of 3%, an inhibition at 1 µM [2] of 42% and an inhibition at 1 µM [3, 5] of 94%.
Work on `CC(=O)N[C@H]1CNCCO[C@@H]1c1ccc(Cl)c(Cl)c1` [Example 240, N-[(6S,7R)-7-(3,4-dichlorophenyl)-1,4-oxazepan-6-yl]acetamide monohydrochloride] yielded an inhibition at 1 µM [1] of 60%, an inhibition at 1 µM [2] of 94% and an inhibition at 1 µM [3, 5] of 105%.
`NC(=O)N[C@@H]1CNCCO[C@H]1c1ccc(Cl)c(Cl)c1` [Example 262, 1-[(6R,7S)-7-(3,4-dichlorophenyl)-1,4-oxazepan-6-yl]urea monohydrochloride] was tested, and the inhibition at 1 µM [1] was 52%, the inhibition at 1 µM [2] was 71% and the inhibition at 1 µM [3, 5] was 98%.
Compound `CS(=O)(=O)N[C@@H]1CNCCO[C@H]1c1ccc(Cl)c(Cl)c1` [Example 265, N-[(6R,7S)-7-(3,4-dichlorophenyl)-1,4-oxazepan-6-yl]methanesulfonamide monohydrochloride] has an inhibition at 1 µM [1] of 72%, an inhibition at 1 µM [2] of 79% and an inhibition at 1 µM [3, 5] of 102%.
